Values of other authors as cited in patent publication US20060193783A1, “Low dose corticosteroid composition” (priority 2003, published 2006).

How the values were obtained:
[1] = used nasally

Row | Compound | solubility in water | nasal irritation [1]
1 | CCCC1O[C@@H]2C[C@H]3[C@@H]4CCC5=CC(=O)C=C[C@]5(C)[C@H]4[C@@H](O)C[C@]3(C)[C@]2(C(=O)CO)O1 (some centres unmarked) [Budesonide] | virtually insoluble in water | –
2 | CN1CCCC1=O [N-methyl pyrrolidone] | – | does not cause any nasal irritation
